Measurements as given in patent publication US20050059731A1, “Erythrosin-based antimicrobial photodynamic therapy compound and its use” (CeramOptec Industries, Inc., priority 2003, published 2005).

Test system: Streptococcus mutans DSM6178 (ATCC 35668)
Assay: Photodynamic inactivation of bacterial cell suspensions of Streptococcus mutans by Erythrosin B gel
Assay type: cell-based
Conditions: in saliva; general statement
Experimental: Photodynamic Inactivation of Bacterial Cell Suspensions of Streptococcus mutans by Erythrosin B: The organism used in this study was Streptococcus mutans DSM6178 (ATCC 35668). Gram-positive Streptococcus spec. are jointly responsible for the development of oral caries. Streptococcus mutans cells were grown aerobically overnight at 37° C. in Tryptic Soy Broth (Merck KGaA Darmstadt, Germany). Cells were harvested by centrifugation and resuspended in sterile phosphate-buffered saline (PBS) supplemented with 10% sterile filtered natural saliva. The final OD (Optical Density) at 600 nm, for a 1 cm path length, in all cases was 0.05. About 0.5 ml of an Erythrosin B gel of hydroxyethyl cellulose (1 mM, 2 mM, 3 mM and 8 mM Erythrosin B) were placed at the bottom of a tube. The gel was layered with 0.5 ml of the bacterial suspension and exposed for 1, 3 or 5 minutes, respectively under slight shaking at room temperature. After exposure 250 μl of the suspension was placed in a new tube, the tube was centrifuged, the supernatant was removed and the cell pellet was resuspended in 250 μl of PBS+10% natural saliva (sterile filtered). […] The fluence rate for these settings was about 0.1 W/cm^2 (measured with Optometer P-9710, Gigahertz-Optik GmbH, Puchheim, Germany). […]

**Q.** `O.O=C([O-])c1ccccc1-c1c2cc(I)c(=O)c(I)c-2oc2c(I)c([O-])c(I)cc12.[Na+].[Na+]` [Erythrosin B] was tested. Which “photosensitizing effectiveness against Gram-positive bacteria” value did it give?
**A.** effective photosensitizing substance against Gram-positive bacteria in saliva
